This is an account of results in patent US20190151350A1, “DEPOLYMERIZED HOLOTHURIAN GLYCOSAMINOGLYCAN COMPOSITION AND PREPARATION METHOD AND APPLICATION THEREOF” (Suzhou Yi-hua Biomedical Technology co., Ltd, priority 2017, published 2019).

In the data set the test system is 4T1 murine mammary carcinoma. Kind of data set: Orthotopic 4T1 murine mammary carcinoma model, lung metastasis. Format: in vivo, BALB/C mice. How it is done: 4T1 cells are cultured with RPMI-1640 culture solution, wherein the concentration of added fetal calf serum is 10%, a penicillin/streptomycin double-antibody is diluted in the culture solution based on the ratio of 1:100, and the cells are cultured in a thermostatic incubator which contains 5% CO2 and has a saturation temperature of 37° C. The cells are subjected to passage every other 2-3 days based on the ratio of 1:3-1:5. BALB/C mice are randomly divided into 7 groups, and a fourth fat pad of the breast is inoculated with 1×10^5 4 T1 cells. Then 20 mg/kg, 40 mg/kg and 80 mg/kg […] and 4 mg/kg dalteparin are injected to each group respectively. Mice were observed daily. Body weights and tumor volumes were recorded three times per week during the experiment. Breast tumors are removed after continuous administration for 12 days, and then 4 mg/kg cisplatin is […] to each group from the 13th thy, once in every four days. On the 30th day, anesthesia is conducted, the mice are sacrificed, lungs and spleens are taken out, washed and weighted. Photos were taken and lung samples were fixed in 10% neutral for metastatic nodule count and HE staining

Where [1] appears, read: cisplatin alone or combined with dHG10092, compared with negative control group.

As to `N.N.[Cl][Pt][Cl]` [Cisplatin], under “cisplatin 4 mg/kg, alone or in a combination”, the body weight entry was “can cause weight reduction”. For the same compound, under setting [1], the lung weight result was “much lower” and the spleen weight entry is recorded as “much lower”. Also, for the setting “cisplatin independently or with dHG10092”, the “lung tumor area range (HE staining)” value is “remarkably reduce the lung tumor area range”.
